In brackets after ≈: the same amount, converted by molar mass.
Tests used:
[1] = Cmax in cannulated Sprague-Dawley rat assessed as atazanavir level at 30 mg/kg equiv of atazanavir administered orally by UPLC/MS/MS analysis; assay type: ADME, organism-based; parameters: dose 30 mg/kg, route oral; conditions: in vivo, po
[2] = AUClast in cannulated Sprague-Dawley rat assessed as atazanavir level at 30 mg/kg equiv of atazanavir administered orally by UPLC/MS/MS analysis; assay type: ADME, organism-based; parameters: dose 30 mg/kg, route oral, time 0 - last; conditions: in vivo, po
[3] = Cmin in cannulated Sprague-Dawley rat assessed as atazanavir level at 6 mg/kg equiv of atazanavir administered orally measured after 24 hrs by UPLC/MS/MS analysis; assay type: ADME, organism-based; conditions: in vivo, po, BLD = below limit of detection
[4] = Cmin in cannulated Sprague-Dawley rat assessed as atazanavir level at 30 mg/kg equiv of atazanavir administered orally measured after 24 hrs by UPLC/MS/MS analysis; assay type: ADME, organism-based; conditions: in vivo, po, read-out: Cmin
[5] = Total AUC in cannulated Sprague-Dawley rat assessed as atazanavir level at 30 mg/kg equiv of atazanavir administered orally by UPLC/MS/MS analysis relative to atazanavir alone; assay type: ADME, organism-based; conditions: in vivo, po
[6] = Drug metabolism in cannulated Sprague-Dawley rat assessed as prodrug to atazanavir ratio at 30 mg/kg equiv of atazanavir administered orally by UPLC/MS/MS analysis; assay type: ADME, organism-based; conditions: in vivo, po
[7] = Aqueous solubility of the compound in pH 3 buffer by RP-UPLC analysis; assay type: physicochemical
[8] = Aqueous solubility of the compound in pH 4 citrate buffer by RP-UPLC analysis; assay type: physicochemical
[9] = Ratio of test compound to atazanavir aqueous solubility in pH 3 buffer by RP-UPLC analysis; assay type: physicochemical
[10] = Ratio of test compound to atazanavir aqueous solubility in pH 5 buffer by RP-UPLC analysis; assay type: physicochemical
[11] = Elimination half life in rat hepatocytes at 1 uM in absence of esterase inhibitor PMSF/CYP450 inhibitor ABT; assay type: ADME, cell-based, Hepatocyte; conditions: read-out: beta t1/2
[12] = Prodrug conversion in rat hepatocytes assessed as pseudo first order rate constant for atazanavir formation at 1 uM in presence of esterase inhibitor PMSF; assay type: ADME, cell-based, Hepatocyte
[13] = Prodrug conversion in rat hepatocytes assessed as pseudo first order rate constant for atazanavir formation at 1 uM in presence of CYP450 inhibitor ABT; assay type: ADME, cell-based, Hepatocyte
[14] = Drug recovery in intestinal homogenates of closed loop rat intestinal model at 1 mg/kg administered as cassette dose by LC/MS analysis; assay type: ADME, organism-based, Intestine; conditions: intestinal homogenate, other: closed loop intestinal model, read-out: Drug recovery
[15] = Drug recovery in intestinal content of closed loop rat intestinal model at 1 mg/kg administered as cassette dose by LC/MS analysis; assay type: ADME, organism-based; conditions: in vivo
[16] = molecular target: T1, UDP-glucuronosyltransferase 1A1 (Homo sapiens, UniProt P22309); assay: Inhibition of recombinant human UGT1A1 using bilirubin as substrate preincubated for 5 mins followed by substrate addition and measured after 40 mins by LC-MS/MS analysis; assay type: ADME
T1 sequence (P22309 whole entry): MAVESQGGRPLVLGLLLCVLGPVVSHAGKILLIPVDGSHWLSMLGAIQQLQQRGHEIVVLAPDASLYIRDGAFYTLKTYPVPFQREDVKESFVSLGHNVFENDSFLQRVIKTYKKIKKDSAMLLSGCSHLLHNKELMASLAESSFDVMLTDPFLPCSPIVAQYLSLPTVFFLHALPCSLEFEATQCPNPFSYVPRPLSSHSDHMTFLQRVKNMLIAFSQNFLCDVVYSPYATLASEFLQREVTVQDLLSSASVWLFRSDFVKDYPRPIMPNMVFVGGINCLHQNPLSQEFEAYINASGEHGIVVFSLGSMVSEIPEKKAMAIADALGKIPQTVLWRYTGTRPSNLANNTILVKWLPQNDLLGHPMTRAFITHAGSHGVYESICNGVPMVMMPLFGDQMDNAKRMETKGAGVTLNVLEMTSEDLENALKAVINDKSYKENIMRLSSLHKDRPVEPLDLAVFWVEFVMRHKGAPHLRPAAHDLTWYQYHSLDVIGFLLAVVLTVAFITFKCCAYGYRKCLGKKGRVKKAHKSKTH

[17] = molecular target: T2, UDP-glucuronosyltransferase 1A1 (Rattus norvegicus, UniProt Q64550); assay: Inhibition of recombinant rat UGT1A1 using beta-estradiol as substrate preincubated for 5 mins followed by substrate addition and measured after 40 mins by LC-MS/MS analysis; assay type: ADME
T2 sequence (Q64550 whole entry): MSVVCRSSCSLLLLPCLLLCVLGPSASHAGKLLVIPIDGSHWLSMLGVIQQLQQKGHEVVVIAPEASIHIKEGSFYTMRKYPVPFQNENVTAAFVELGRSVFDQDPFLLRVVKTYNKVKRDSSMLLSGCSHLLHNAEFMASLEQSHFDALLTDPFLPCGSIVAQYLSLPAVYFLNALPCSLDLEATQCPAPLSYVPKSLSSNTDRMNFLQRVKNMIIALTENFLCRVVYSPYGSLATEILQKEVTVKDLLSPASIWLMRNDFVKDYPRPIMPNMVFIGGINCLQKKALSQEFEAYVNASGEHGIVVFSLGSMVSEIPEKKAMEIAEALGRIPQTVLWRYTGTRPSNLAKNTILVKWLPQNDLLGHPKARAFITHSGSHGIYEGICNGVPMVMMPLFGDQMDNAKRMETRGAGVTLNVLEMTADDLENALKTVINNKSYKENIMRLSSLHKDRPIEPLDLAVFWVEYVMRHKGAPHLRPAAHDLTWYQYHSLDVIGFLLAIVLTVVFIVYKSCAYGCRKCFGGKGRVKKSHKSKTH

[18] = molecular target: T2, UDP-glucuronosyltransferase 1A1; assay: Inhibition of UGT1A1 in rat liver microsomes using beta-estradiol as substrate preincubated for 5 mins followed by substrate addition and measured after 40 mins by LC-MS/MS analysis; assay type: ADME
[19] = molecular target: T3, UGT1A1 (Homo sapiens, UniProt P22309); assay: Ratio of test compound IC50 to atazanavir IC50 for recombinant human UGT1A1; assay type: ADME; conditions: read-out: Ratio IC50
T3 sequence (P22309 whole entry): T1 sequence (P22309 whole entry)

[20] = tested on: UGT1A1; assay: Ratio of test compound IC50 to atazanavir IC50 for recombinant cynomolgus monkey UGT1A1; assay type: ADME, Macaca fascicularis; conditions: read-out: Ratio IC50
[21] = molecular target: T3, UGT1A1; assay: Ratio of test compound IC50 to atazanavir IC50 for UGT1A1 in human liver microsomes; assay type: ADME; conditions: read-out: Ratio IC50
[22] = molecular target: T4, UGT1A1 (Rattus norvegicus, UniProt Q64550); assay: Ratio of test compound IC50 to atazanavir IC50 for UGT1A1 in rat liver microsomes; assay type: ADME; conditions: read-out: Ratio IC50
T4 sequence (Q64550 whole entry): T2 sequence (Q64550 whole entry)

[23] = molecular target: Protease (Human immunodeficiency virus 1, UniProt Q9YQ12)
Description: Inhibition of HIV1 protease activity

[24] = rat, in vivo, po, 3 mg/kg
[25] = tested on: Human immunodeficiency virus 1
Description: Antiviral activity against HIV1 NL4-3 infected in human MT2 cells assessed as reduction in viral yield measured after 4 days by EnduRen live cell substrate based luciferase reporter gene assay

[26] = physchem; conditions: 30% CH3CN/acetate buffer, pH 4
Description: Half life in pH 4 30%CH3CN/acetate buffer at 50 mM by RP-UPLC analysis

[27] = physchem; conditions: HCl buffer, pH 1
Description: Aqueous solubility of the compound in pH 1 HCl buffer by RP-UPLC analysis

[28] = physchem; conditions: phosphate buffer, pH 6.5
Description: Aqueous solubility of the compound in pH 6.5 phosphate buffer by RP-UPLC analysis

[29] = physchem; conditions: phosphate buffer, pH 7.4
Description: Aqueous solubility of the compound in pH 7.4 phosphate buffer by RP-UPLC analysis

Sequence of Protease (Q9YQ12 whole entry): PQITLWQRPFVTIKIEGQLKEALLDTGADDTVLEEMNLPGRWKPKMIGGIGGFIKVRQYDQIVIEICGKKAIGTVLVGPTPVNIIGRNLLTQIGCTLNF

- Cmax [1]: 4.72 µM
- AUClast [2]: 19.67 µM·h
- Cmin [3]: Bld
- concentration [4]: 1 nM
- fold change (FC) [5]: 65.3
- Ratio [6]: 0.3
- solubility [7]: > 3200 µg/mL
- solubility [8]: > 1100 µg/mL
- Ratio [9]: 114
- Ratio [10]: 1300
- half-life at 1 µM [11]: 42 min
- K [12]: 0.0009 min⁻¹
- K [13]: 0.0042 min⁻¹
- recovery [14]: 5.6%
- Drug recovery [15]: 32%
- IC50 [16]: 2800 nM
- IC50 [17]: 12.6 µM
- IC50 [18]: 19.5 µM
- IC50 [23]: 4 to 1140 nM
- Cmax [24]: 456 nM
- EC50 [25]: 0.9 to 1250 nM
- half-life at 50000 µM [26]: > 20.8 days
- solubility [27]: > 1500 µg/mL
- solubility [28]: 27 µg/mL (≈ 31.7 µM)
- solubility [29]: 1 µg/mL (≈ 1.17 µM)
SMILES: COC(=O)N[C@H](C(=O)N[C@@H](Cc1ccccc1)[C@H](CN(Cc1ccc(-c2ccccn2)cc1)NC(=O)[C@@H](NC(=O)OC)C(C)(C)C)OC(=O)[C@@H](N)Cc1ccccc1)C(C)(C)C
- selectivity ratio [19]: 9.3
- selectivity ratio [20]: 17
- selectivity ratio [21]: 4.2
- selectivity ratio [22]: 5.7

— ChEMBL document CHEMBL4390686, “Design, Synthesis, and Pharmacokinetic Evaluation of Phosphate and Amino Acid Ester Prodrugs for Improving the Oral Bioavailability of the HIV-1 Protease Inhibitor Atazanavir” (J Med Chem, 2019)
